Patent US10227350B2 (Gilead Sciences, Inc., priority 2016, dated 2019)

These compounds were tested against PI3Kβ (Homo sapiens (Human), UniProt P42338) (assay: TR-FRET enzymatic activity assay, PI3Kβ). Conditions: 2× Km ATP, 2 μM PIP2, 30 minutes at 25° C., read-out: IC50-PIP-Beta.
Type: biochemical
Protocol: The compounds of formula (I) were characterized for their enzymatic activity against the PI3K isoforms. The activities were measured using a time-resolved fluorescence resonance energy transfer (TR-FRET) assay. TR-FRET monitored the formation of 3,4,5-inositol triphosphate molecule that competed with fluorescently labeled PIPS for binding to the GRP-1 pleckstrin homology domain protein.
Class I PI3K isoforms were expressed and purified as heterodimeric recombinant proteins. All assay reagents and buffers for the TR-FRET assay were purchased from Millipore. […] The compounds were added to the assay solution and incubated for 30 minutes at 25° C.

Chain of PI3Kβ (P42338 whole entry): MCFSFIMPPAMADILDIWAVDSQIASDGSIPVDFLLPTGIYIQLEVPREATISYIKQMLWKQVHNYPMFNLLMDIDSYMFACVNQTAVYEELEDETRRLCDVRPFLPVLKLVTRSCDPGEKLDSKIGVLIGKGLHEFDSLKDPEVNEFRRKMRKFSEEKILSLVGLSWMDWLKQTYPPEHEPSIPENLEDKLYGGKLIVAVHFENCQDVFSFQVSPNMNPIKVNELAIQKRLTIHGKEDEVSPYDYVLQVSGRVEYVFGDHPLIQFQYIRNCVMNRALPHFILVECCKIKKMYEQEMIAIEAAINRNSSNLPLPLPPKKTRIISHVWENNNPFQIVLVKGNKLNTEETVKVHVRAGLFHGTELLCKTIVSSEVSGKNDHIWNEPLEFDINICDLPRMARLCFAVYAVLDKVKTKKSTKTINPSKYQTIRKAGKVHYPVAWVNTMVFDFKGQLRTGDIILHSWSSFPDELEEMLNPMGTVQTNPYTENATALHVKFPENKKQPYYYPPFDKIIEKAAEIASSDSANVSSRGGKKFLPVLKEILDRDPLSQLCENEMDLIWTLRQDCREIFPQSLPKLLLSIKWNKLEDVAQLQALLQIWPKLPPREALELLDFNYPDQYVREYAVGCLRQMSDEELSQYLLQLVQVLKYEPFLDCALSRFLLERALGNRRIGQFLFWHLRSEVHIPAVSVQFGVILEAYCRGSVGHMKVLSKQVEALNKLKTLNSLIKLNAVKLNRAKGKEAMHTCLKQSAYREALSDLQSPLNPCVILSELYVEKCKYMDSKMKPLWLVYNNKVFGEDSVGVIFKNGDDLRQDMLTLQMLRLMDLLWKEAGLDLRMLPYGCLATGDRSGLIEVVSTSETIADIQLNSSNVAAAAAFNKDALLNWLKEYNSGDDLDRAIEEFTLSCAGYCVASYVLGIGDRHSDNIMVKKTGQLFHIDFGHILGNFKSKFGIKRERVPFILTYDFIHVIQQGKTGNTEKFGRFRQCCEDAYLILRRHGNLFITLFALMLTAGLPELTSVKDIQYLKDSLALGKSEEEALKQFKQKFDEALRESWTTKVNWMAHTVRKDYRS
Chain of PI3Kβ (P27986 whole entry partner): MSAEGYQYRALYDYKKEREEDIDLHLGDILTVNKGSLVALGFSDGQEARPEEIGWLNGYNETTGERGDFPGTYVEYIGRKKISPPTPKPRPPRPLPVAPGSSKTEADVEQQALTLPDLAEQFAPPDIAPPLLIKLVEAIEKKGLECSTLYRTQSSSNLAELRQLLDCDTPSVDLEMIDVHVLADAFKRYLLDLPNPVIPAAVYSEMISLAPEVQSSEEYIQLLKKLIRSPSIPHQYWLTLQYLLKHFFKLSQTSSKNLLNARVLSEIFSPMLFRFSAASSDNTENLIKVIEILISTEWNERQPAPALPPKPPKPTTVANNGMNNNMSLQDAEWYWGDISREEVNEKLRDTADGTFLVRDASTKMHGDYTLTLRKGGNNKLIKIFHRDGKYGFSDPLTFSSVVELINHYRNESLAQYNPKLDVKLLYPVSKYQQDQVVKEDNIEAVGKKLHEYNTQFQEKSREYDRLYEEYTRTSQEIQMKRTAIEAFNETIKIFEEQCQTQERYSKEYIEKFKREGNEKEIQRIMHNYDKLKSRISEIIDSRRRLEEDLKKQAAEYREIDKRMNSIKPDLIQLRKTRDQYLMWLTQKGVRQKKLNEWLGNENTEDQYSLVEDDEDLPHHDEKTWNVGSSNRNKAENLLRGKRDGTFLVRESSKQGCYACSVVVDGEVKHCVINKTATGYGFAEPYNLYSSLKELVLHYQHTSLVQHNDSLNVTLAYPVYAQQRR

SMILES | IC50
NC(=O)c1cc(-c2ccncc2)cc2c1ncn2-c1ccnc2c(Cl)cccc12 [Example 5, 1-(8-chloroquinolin-4-yl)-6-pyridin-4-ylbenzimidazole-4-carboxamide] | 86 nM
Cc1nc2c(C(N)=O)cc(-c3ccncc3)cc2n1-c1ccnc2c(F)ccc(F)c12 [Example 6, 1-(5,8-difluoroquinolin-4-yl)-2-methyl-6-pyridin-4-ylbenzimidazole-4-carboxamide] | 36 nM
Cc1cc(-n2c(C)nc3c(C(N)=O)cc(-c4ccncc4)cc32)c2cccc(Cl)c2n1 [Example 7, 1-(8-chloro-2-methylquinolin-4-yl)-2-methyl-6-pyridin-4-ylbenzimidazole-4-carboxamide] | 16 nM
Cc1nc2c(C(N)=O)cc(-c3ccncc3)cc2n1-c1ccnc2cccc(F)c12 [Example 8, 1-(5-fluoroquinolin-4-yl)-2-methyl-6-pyridin-4-ylbenzimidazole-4-carboxamide] | 82 nM
Cc1cccc2nccc(-n3c(C)nc4c(C(N)=O)cc(-c5ccncc5)cc43)c12 [Example 9, 2-methyl-1-(5-methylquinolin-4-yl)-6-pyridin-4-ylbenzimidazole-4-carboxamide] | 950 nM
Cc1cc(-n2c(C)nc3c(C(N)=O)cc(-c4ccncc4)cc32)c2ccccc2n1 [Example 10, 2-methyl-1-(2-methylquinolin-4-yl)-6-pyridin-4-ylbenzimidazole-4-carboxamide] | 1600 nM
Cc1nc2c(C(N)=O)cc(-c3ccncc3)cc2n1-c1ccnc2c(Cl)ccc(F)c12 [Example 11, 1-(8-chloro-5-fluoroquinolin-4-yl)-2-methyl-6-pyridin-4-ylbenzimidazole-4-carboxamide] | 3 nM
NC(=O)c1cc(-c2ccncc2)cc2c1nc(C1COC1)n2-c1ccnc2c(Cl)cccc12 [Example 12, 1-(8-chloroquinolin-4-yl)-2-(oxetan-3-yl)-6-pyridin-4-ylbenzimidazole-4-carboxamide] | 340 nM
Cc1nc2c(C(N)=O)cc(-c3ccncc3)cc2n1-c1ccnc2c(Cl)cccc12 [Example 13, 1-(8-chloroquinolin-4-yl)-2-methyl-6-pyridin-4-ylbenzimidazole-4-carboxamide] | 15 nM
Cc1nc2c(C(N)=O)cc(-c3ccncc3F)cc2n1-c1ccnc2c(Cl)cccc12 [Example 14, 1-(8-chloroquinolin-4-yl)-6-(3-fluoropyridin-4-yl)-2-methylbenzimidazole-4-carboxamide] | 62 nM
Cc1cc(-c2cc(C(N)=O)c3nc(C)n(-c4ccnc5c(Cl)cccc45)c3c2)ccn1 [Example 15, 1-(8-chloroquinolin-4-yl)-2-methyl-6-(2-methylpyridin-4-yl)benzimidazole-4-carboxamide] | 150 nM
Cc1nc2c(C(N)=O)cc(-c3ccnc(C#N)c3)cc2n1-c1ccnc2c(F)ccc(F)c12 [Example 16, 6-(2-cyanopyridin-4-yl)-1-(5,8-difluoroquinolin-4-yl)-2-methylbenzimidazole-4-carboxamide] | 51 nM
Cc1nc2c(C(N)=O)cc(-c3ccnc(N)c3)cc2n1-c1ccnc2c(Cl)ccc(F)c12 [Example 18, 6-(2-aminopyridin-4-yl)-1-(8-chloro-5-fluoroquinolin-4-yl)-2-methylbenzimidazole-4-carboxamide] | 23 nM
Cc1nc2c(C(N)=O)cc(-c3ccnc(N)n3)cc2n1-c1ccnc2c(Cl)cccc12 [Example 19, 6-(2-aminopyrimidin-4-yl)-1-(8-chloroquinolin-4-yl)-2-methylbenzimidazole-4-carboxamide] | 12 nM
Cc1nc2c(C(N)=O)cc(-c3ncnc4[nH]cnc34)cc2n1-c1ccnc2c(Cl)cccc12 [Example 20, 1-(8-chloroquinolin-4-yl)-2-methyl-6-(9H-purin-6-yl)benzimidazole-4-carboxamide] | 1100 nM
Cc1nc2c(C(N)=O)cc(-c3cc(N)ncn3)cc2n1-c1ccnc2c(Cl)cccc12 [Example 21, 6-(6-aminopyrimidin-4-yl)-1-(8-chloroquinolin-4-yl)-2-methylbenzimidazole-4-carboxamide] | 1300 nM
Cc1nc2c(C(N)=O)cc(-c3cc(N)nc(N)n3)cc2n1-c1ccnc2c(Cl)cccc12 [Example 22, 1-(8-chloroquinolin-4-yl)-6-(2,6-diaminopyrimidin-4-yl)-2-methylbenzimidazole-4-carboxamide] | 1100 nM
Cc1nc2c(C(N)=O)cc(-c3ccnc(N)c3)cc2n1-c1ccnc2c(Cl)cccc12 [Example 23, 6-(2-aminopyridin-4-yl)-1-(8-chloroquinolin-4-yl)-2-methyl-1H-benzo[d]imidazole-4-carboxamide] | 96 nM
NC(=O)c1cc(-c2ccnc(N)c2F)cc2c1nc(C1CC1)n2-c1ccnc2c(Cl)ccc(F)c12 [Example 25] | 6 nM

SMILES | IC50
Cc1nc2c(C(N)=O)cc(-c3ccnc(N)c3F)cc2n1-c1ccnc2c(F)ccc(F)c12 [Example 26, 6-(2-amino-3-fluoropyridin-4-yl)-1-(5,8-difluoroquinolin-4-yl)-2-methyl-1H-benzo[d]imidazole-4-carboxamide] | 13 nM
Clc1cccc2c(-n3cnc4c(-c5ncn[nH]5)cc(-c5ccncc5)cc43)ccnc12 [Example 27, 8-chloro-4-[6-pyridin-4-yl-4-(1H-1,2,4-triazol-5-yl)benzimidazol-1-yl]quinoline] | 5 nM
Cc1nc2c(-c3nnc[nH]3)cc(-c3ccncc3)cc2n1-c1ccnc2c(F)ccc(F)c12 [Example 28, 5,8-difluoro-4-[2-methyl-6-pyridin-4-yl-4-(4H-1,2,4-triazol-3-yl)benzimidazol-1-yl]quinoline] | 6 nM
Cc1nc2c(-c3nnc[nH]3)cc(-c3ccncc3)cc2n1-c1ccnc2c(Cl)ccc(Cl)c12 [Example 29, 5,8-dichloro-4-[2-methyl-6-pyridin-4-yl-4-(4H-1,2,4-triazol-3-yl)benzimidazol-1-yl]quinoline] | 6 nM
Cc1nc2c(-c3nnc[nH]3)cc(-c3ccncc3)cc2n1-c1ccnc2cccc(F)c12 [Example 30, 5-fluoro-4-[2-methyl-6-pyridin-4-yl-4-(4H-1,2,4-triazol-3-yl)benzimidazol-1-yl]quinoline] | 8 nM
Cc1cccc2nccc(-n3c(C)nc4c(-c5nnc[nH]5)cc(-c5ccncc5)cc43)c12 [Example 31, 5-methyl-4-[2-methyl-6-pyridin-4-yl-4-(4H-1,2,4-triazol-3-yl)benzimidazol-1-yl]quinoline] | 89 nM
Cc1cc(-n2c(C)nc3c(-c4nnc[nH]4)cc(-c4ccncc4)cc32)c2cccc(Cl)c2n1 [Example 32, 8-chloro-2-methyl-4-[2-methyl-6-pyridin-4-yl-4-(4H-1,2,4-triazol-3-yl)benzimidazol-1-yl]quinoline] | 6 nM
Cc1nnc(-c2cc(-c3ccncc3)cc3c2nc(C)n3-c2ccnc3c(F)ccc(F)c23)[nH]1 [Example 33, 5,8-difluoro-4-[2-methyl-4-(5-methyl-4H-1,2,4-triazol-3-yl)-6-pyridin-4-ylbenzimidazol-1-yl]quinoline] | 110 nM
Cc1cc(-n2c(C)nc3c(-c4nnc[nH]4)cc(-c4ccncc4)cc32)c2ccccc2n1 [Example 34, 2-methyl-4-[2-methyl-6-pyridin-4-yl-4-(4H-1,2,4-triazol-3-yl)benzimidazol-1-yl]quinoline] | 26 nM
Cc1nnc(-c2cc(-c3ccncc3)cc3c2nc(C)n3-c2ccnc3c(Cl)cccc23)[nH]1 [Example 35, 8-chloro-4-[2-methyl-4-(5-methyl-4H-1,2,4-triazol-3-yl)-6-pyridin-4-ylbenzimidazol-1-yl]quinoline] | 22 nM
Clc1cccc2c(-n3c(C4COC4)nc4c(-c5nnc[nH]5)cc(-c5ccncc5)cc43)ccnc12 [Example 36, 8-chloro-4-[2-(oxetan-3-yl)-6-pyridin-4-yl-4-(4H-1,2,4-triazol-3-yl)benzimidazol-1-yl]quinoline] | 250 nM
Cc1nc2c(-c3nnc[nH]3)cc(-c3ccncc3)cc2n1-c1ccnc2c(Cl)ccc(F)c12 [Example 37, 8-chloro-5-fluoro-4-[2-methyl-6-pyridin-4-yl-4-(4H-1,2,4-triazol-3-yl)benzimidazol-1-yl]quinoline] | 4 nM
Cc1nc2c(-c3nnc[nH]3)cc(-c3ccncc3)cc2n1-c1ccnc2c(Cl)cccc12 [Example 38, 8-chloro-4-[2-methyl-6-pyridin-4-yl-4-(4H-1,2,4-triazol-3-yl)benzimidazol-1-yl]quinoline] | 7 nM
Cc1nc2c(-c3nnc[nH]3)cc(-c3ccncc3F)cc2n1-c1ccnc2c(Cl)cccc12 [Example 39, 8-chloro-4-[6-(3-fluoropyridin-4-yl)-2-methyl-4-(4H-1,2,4-triazol-3-yl)benzimidazol-1-yl]quinoline] | 5 nM
Cc1nc2c(-c3nnc[nH]3)cc(-c3cc(F)ncc3F)cc2n1-c1ccnc2c(F)ccc(F)c12 [Example 41, 4-[6-(2,5-difluoropyridin-4-yl)-2-methyl-4-(4H-1,2,4-triazol-3-yl)benzimidazol-1-yl]-5,8-difluoroquinoline] | 27 nM
Cc1nc2c(-c3nnc[nH]3)cc(-c3ccnc(F)c3F)cc2n1-c1ccnc2c(F)ccc(F)c12 [Example 42, 4-[6-(2,3-difluoropyridin-4-yl)-2-methyl-4-(4H-1,2,4-triazol-3-yl)benzimidazol-1-yl]-5,8-difluoroquinoline] | 10 nM
Cc1nc2c(-c3nnc[nH]3)cc(-c3ccnc(C(F)F)c3)cc2n1-c1ccnc2c(F)ccc(F)c12 [Example 43, 4-(6-(2-(difluoromethyl)pyridin-4-yl)-2-methyl-4-(4H-1,2,4-triazol-3-yl)-1H-benzo[d]imidazol-1-yl)-5,8-difluoroquinoline] | 30 nM
Cc1nc2c(-c3nnc[nH]3)cc(-c3ccnc(C#N)c3)cc2n1-c1ccnc2c(F)ccc(F)c12 [Example 44, 4-[3-(5,8-difluoroquinolin-4-yl)-2-methyl-7-(4H-1,2,4-triazol-3-yl)benzimidazol-5-yl]pyridine-2-carbonitrile] | 4 nM
